In PMC8177795 (Cancer Science, 2021):
Entries after “also recorded” stand apart in the source; their conditions may differ.

Assay: Safety and tolerability
Format: in vivo, Japanese patients
Conditions: for Overall safety and tolerability: adult Japanese patients with r/r B‐cell malignancies

Which results are given for `CC#CC(=O)N1CCC[C@H]1c1nc(-c2ccc(C(=O)Nc3ccccn3)cc2)c2c(N)nccn12` [acalabrutinib]?
Overall safety and tolerability (100 mg BID): safe and well‐tolerated; Overall safety and tolerability (100 mg BID, listed as Acalabrutinib): generally safe and well‐tolerated; Dose‐limiting toxicities (DLTs) (100 mg BID, part 1): No DLTs were observed; AE of clinical interest: Anemia (Part 1 (N = 6)): 2 (33.3) n (%); AE of clinical interest: Atrial fibrillation (Part 1 (N = 6)): 0 n (%); AE of clinical interest: Cardiac events (Part 1 (N = 6)): 0 n (%); AE of clinical interest: Hemorrhage (Part 1 (N = 6)): 0 n (%); AE of clinical interest: Hepatotoxicity (Part 1 (N = 6)): 0 n (%); AE of clinical interest: Infections (Part 1 (N = 6)): 6 (100.0) n (%); AE of clinical interest: Interstitial lung disease/pneumonitis (Part 1 (N = 6)): 1 (16.7) n (%); AE of clinical interest: Leukopenia (Part 1 (N = 6)): 1 (16.7) n (%); AE of clinical interest: Neutropenia (Part 1 (N = 6)): 1 (16.7) n (%); AE of clinical interest: Other hemorrhage (Part 1 (N = 6)): 0 n (%); AE of clinical interest: Other leukopenia (Part 1 (N = 6)): 0 n (%); AE of clinical interest: Second primary malignancies (excl. nonmelanoma skin cancer) (Part 1 (N = 6)): 1 (16.7) n (%); AE of clinical interest: Second primary malignancy (Part 1 (N = 6)): 1 (16.7) n (%); AE of clinical interest: Thrombocytopenia (Part 1 (N = 6)): 1 (16.7) n (%); AE of clinical interest: Tumor lysis syndrome (Part 1 (N = 6)): 0 n (%); Patients with any AE of clinical interest (Part 1 (N = 6)): 6 (100.0) n (%); Patients with any SAE (Part 1 (N = 6)): 3 (50.0) n (%); SAE: Abdominal pain upper (Part 1 (N = 6)): 0 n (%); SAE: Anemia (Part 1 (N = 6)): 1 (16.7) n (%); SAE: Blood and lymphatic system disorders (Part 1 (N = 6)): 1 (16.7) n (%); SAE: Colon cancer (Part 1 (N = 6)): 1 (16.7) n (%); SAE: Gastrointestinal disorders (Part 1 (N = 6)): 0 n (%); SAE: Infections and infestations (Part 1 (N = 6)): 1 (16.7) n (%); SAE: Neoplasms benign, malignant, and unspecified (incl. cysts and polyps) (Part 1 (N = 6)): 1 (16.7) n (%); SAE: Pneumonia (Part 1 (N = 6)): 1 (16.7) n (%); AE of clinical interest (Total (N = 25)): 95 Total number of AEs; AE of clinical interest: Anemia (Total (N = 25)): 6 (24.0) n (%); AE of clinical interest: Atrial fibrillation (Total (N = 25)): 1 (4.0) n (%); AE of clinical interest: Cardiac events (Total (N = 25)): 1 (4.0) n (%); AE of clinical interest: Hemorrhage (Total (N = 25)): 8 (32.0) n (%); AE of clinical interest: Hepatotoxicity (Total (N = 25)): 3 (12.0) n (%); AE of clinical interest: Infections (Total (N = 25)): 16 (64.0) n (%); AE of clinical interest: Interstitial lung disease/pneumonitis (Total (N = 25)): 1 (4.0) n (%); AE of clinical interest: Leukopenia (Total (N = 25)): 7 (28.0) n (%); AE of clinical interest: Neutropenia (Total (N = 25)): 6 (24.0) n (%); AE of clinical interest: Other hemorrhage (Total (N = 25)): 8 (32.0) n (%); AE of clinical interest: Other leukopenia (Total (N = 25)): 3 (12.0) n (%); AE of clinical interest: Second primary malignancies (excl. nonmelanoma skin cancer) (Total (N = 25)): 1 (4.0) n (%); AE of clinical interest: Second primary malignancy (Total (N = 25)): 1 (4.0) n (%); AE of clinical interest: Thrombocytopenia (Total (N = 25)): 5 (20.0) n (%); AE of clinical interest: Tumor lysis syndrome (Total (N = 25)): 1 (4.0) n (%); Patients with any AE of clinical interest (Total (N = 25)): 22 (88.0) n (%); Patients with any SAE (Total (N = 25)): 6 (24.0) n (%); SAE: Abdominal pain upper (Total (N = 25)): 1 (4.0) n (%); SAE: Anemia (Total (N = 25)): 1 (4.0) n (%); SAE: Blood and lymphatic system disorders (Total (N = 25)): 1 (4.0) n (%); SAE: Colon cancer (Total (N = 25)): 1 (4.0) n (%); SAE: Gastrointestinal disorders (Total (N = 25)): 1 (4.0) n (%); SAE: Infections and infestations (Total (N = 25)): 3 (12.0 n (%); SAE: Neoplasms benign, malignant, and unspecified (incl. cysts and polyps) (Total (N = 25)): 1 (4.0) n (%); SAE: Pneumonia (Total (N = 25)): 3 (12.0) n (%); AEs of clinical interest, patients (all 25 treated patients): 88%; AEs resulting in treatment discontinuation or death (all 25 treated patients): No AEs resulted in treatment discontinuation or death; also recorded: No AEs with the outcome of death or AEs/SAEs leading to treatment discontinuation were reported; Grade 4 AEs, patients (all 25 treated patients): 20%; Headache (any AE), patients (all 25 treated patients): 32%; Rash (any AE), patients (all 25 treated patients): 28%; SAEs related to treatment, patients (all 25 treated patients): 16%; Serious adverse events (SAEs), patients (all 25 treated patients): 24%; Treatment‐related adverse events, patients (all 25 treated patients): 88%; Treatment‐related headache, patients (all 25 treated patients): 28%; Treatment‐related purpura, patients (all 25 treated patients): 24%; AE of clinical interest: Anemia (r/r CLL/SLL cohort (N = 9)): 2 (22.2) n (%); AE of clinical interest: Atrial fibrillation (r/r CLL/SLL cohort (N = 9)): 0 n (%); AE of clinical interest: Cardiac events (r/r CLL/SLL cohort (N = 9)): 0 n (%); AE of clinical interest: Hemorrhage (r/r CLL/SLL cohort (N = 9)): 4 (44.4) n (%); AE of clinical interest: Hepatotoxicity (r/r CLL/SLL cohort (N = 9)): 1 (11.1) n (%); AE of clinical interest: Infections (r/r CLL/SLL cohort (N = 9)): 6 (66.7) n (%); AE of clinical interest: Interstitial lung disease/pneumonitis (r/r CLL/SLL cohort (N = 9)): 0 n (%); AE of clinical interest: Leukopenia (r/r CLL/SLL cohort (N = 9)): 3 (33.3) n (%); AE of clinical interest: Neutropenia (r/r CLL/SLL cohort (N = 9)): 3 (33.3) n (%); AE of clinical interest: Other hemorrhage (r/r CLL/SLL cohort (N = 9)): 4 (44.4) n (%)
